From ChEMBL document CHEMBL4765428, “Design, synthesis, and electrophysiological evaluation of NS6740 derivatives: Exploration of the structure-activity relationship for alpha7 nicotinic acetylcholine receptor silent activation” (Eur J Med Chem, 2020)
Activity calls are given as the source filed them. No cut-off for these calls is given here.

How the values were obtained:
[1] = target: T1, Neuronal acetylcholine receptor subunit alpha-7 (Homo sapiens, UniProt P36544); test: (§1) Partial agonist activity at human alpha7 nAChR expressed in Xenopus laevis oocytes assessed as inhibition of Ach response at 10 to 30 uM at -60 mV holding potential by measuring net charge preincubated with compound followed by Ach addition by two electrode voltage-clamp assay; assay type: cell-based; details: Oocyte, dose 10-30 µM
[2] = target: T1, Neuronal acetylcholine receptor subunit alpha-7; test: Partial agonist activity at human alpha7 nAChR expressed in Xenopus laevis oocytes at 10 uM at -60 mV holding potential by measuring net charge by two electrode voltage-clamp assay; assay type: cell-based; details: Oocyte
[3] = target: T1, Neuronal acetylcholine receptor subunit alpha-7; test: as §1, with “residual potentiation” for “inhibition”, “10” for “10 to 30”, “addition after PNU-120596 addition” for “addition”; assay type: cell-based; details: Oocyte
[4] = target: T1, Neuronal acetylcholine receptor subunit alpha-7; test: Partial agonist activity at human alpha7 nAChR expressed in Xenopus laevis oocytes assessed as direct potentiation of Ach response at 10 uM at -60 mV holding potential by measuring net charge co-application of compound and PNU-120596 by two electrode voltage-clamp assay; assay type: cell-based; details: Oocyte
[5] = target: T1, Neuronal acetylcholine receptor subunit alpha-7; test: Partial agonist activity at human alpha7 nAChR expressed in Xenopus laevis oocytes at -60 mV holding potential by two electrode voltage-clamp assay; assay type: cell-based, Oocyte; details: for Imax: Oocyte, filed as partial agonist
[6] = target: T1, Neuronal acetylcholine receptor subunit alpha-7; test: (§2) Partial agonist activity at human alpha7 nAChR expressed in Xenopus laevis oocytes assessed as inhibition of Ach response at 3 uM at -60 mV holding potential by measuring net charge preincubated with compound followed by Ach stimulation by two electrode voltage-clamp assay; assay type: cell-based; details: Oocyte
[7] = target: T1, Neuronal acetylcholine receptor subunit alpha-7; test: as §1, with “residual potentiation” for “inhibition”, “at” for “at 10 to”, “addition after PNU-120596 addition” for “addition”; assay type: cell-based; details: Oocyte, filed as partial agonist
[8] = target: T1, Neuronal acetylcholine receptor subunit alpha-7; test: Partial agonist activity at human alpha7 nAChR expressed in Xenopus laevis oocytes at 1 to 30 uM at -60 mV holding potential by two electrode voltage-clamp assay; assay type: cell-based; details: Oocyte, dose 1-30 µM
[9] = target: T1, Neuronal acetylcholine receptor subunit alpha-7; test: Partial agonist activity at human alpha7 nAChR expressed in Xenopus laevis oocytes assessed as inhibition of Ach response at 30 uM at -60 mV holding potential by measuring net charge preincubated with compound followed by Ach stimulation by two electrode voltage-clamp assay; assay type: cell-based; details: Oocyte, filed as partial agonist
[10] = target: T1, Neuronal acetylcholine receptor subunit alpha-7; test: as §2, with “residual potentiation” for “inhibition”, “addition after PNU-120596 addition” for “stimulation”; assay type: cell-based; details: Oocyte, filed as partial agonist
[11] = target: T1, Neuronal acetylcholine receptor subunit alpha-7; test: Partial agonist activity at human alpha7 nAChR expressed in Xenopus laevis oocytes assessed as direct potentiation of Ach response at 30 uM at -60 mV holding potential by measuring net charge co-application of compound and PNU-120596 by two electrode voltage-clamp assay; assay type: cell-based; details: Oocyte, filed as partial agonist

T1 sequence (P36544 whole entry): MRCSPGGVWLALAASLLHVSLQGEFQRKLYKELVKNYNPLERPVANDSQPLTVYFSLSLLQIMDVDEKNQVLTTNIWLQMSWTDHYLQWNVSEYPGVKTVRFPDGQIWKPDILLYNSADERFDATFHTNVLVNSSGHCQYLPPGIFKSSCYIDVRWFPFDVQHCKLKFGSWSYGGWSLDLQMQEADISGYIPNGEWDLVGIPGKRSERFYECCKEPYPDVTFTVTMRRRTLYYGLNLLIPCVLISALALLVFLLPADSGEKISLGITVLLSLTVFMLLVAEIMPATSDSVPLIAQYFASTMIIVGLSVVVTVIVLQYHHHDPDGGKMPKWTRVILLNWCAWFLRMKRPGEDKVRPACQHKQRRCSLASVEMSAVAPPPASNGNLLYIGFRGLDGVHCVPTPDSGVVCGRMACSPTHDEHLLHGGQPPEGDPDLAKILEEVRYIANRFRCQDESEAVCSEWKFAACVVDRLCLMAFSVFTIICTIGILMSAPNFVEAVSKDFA

| Structure (SMILES) | Activity ([1]; filed as partial agonist) | Activity ([2]; filed as partial agonist) | Activity ([3]; filed as partial agonist) | Activity [1] | Activity [2] | Activity [3] | Activity ([4]; filed as partial agonist) | further results |
| --- | --- | --- | --- | --- | --- | --- | --- | --- |
| O=C(c1ccc(-c2ccccc2)o1)N1CCN2CCC1CC2 | 0.14 | 0.54 | 18.3 | – | – | – | – | – |
| O=C(c1ccc(-c2cccc(C(F)(F)F)c2)o1)N1C[C@@H]2C[C@H]1CN2 | – | – | – | inactive | inactive | inactive | 15.2 | – |
| O=C(c1ccc(-c2cccc(F)c2)o1)N1CCN2CCC1CC2 | Active | – | Active | – | inactive | – | – | – |
| Nc1cccc(-c2ccc(C(=O)N3CCN4CCC3CC4)o2)c1 | 0.5 | 0.1 | – | – | – | – | 24.6 | – |
| O=C(c1ccco1)N1CCN2CCC1CC2 | – | 0.71 | – | – | – | inactive | Active | EC50 [5]: 764 nM; Imax [5]: 0.71 |
| O=C(c1ccc(-c2cccc(Cl)c2)o1)N1CCN2CCC1CC2 | – | – | Active | 0.04 | inactive | – | – | – |
| O=C(c1ccc(-c2ccc3ccccc3c2)o1)N1CCN2CCC1CC2 | 1.18 | 0.15 | – | – | – | inactive | – | Activity [4]: inactive |
| C1CN2CCC(CC2)N1 | – | – | – | inactive | inactive | inactive | – | Activity [4]: inactive |
| CC(=O)N1CCN2CCC1CC2 | – | – | – | – | inactive | inactive | Active | – |
| O=C(c1ccc(-c2cccc(C(F)(F)F)c2)o1)N1C[C@H]2C[C@@H]1CN2 | – | – | – | inactive | inactive | inactive | 43.7 | – |
| O=C(c1ccc(-c2cccc(O)c2)o1)N1CCN2CCC1CC2 | – | – | Active | inactive | inactive | – | – | – |
| O=C(c1ccc(-c2cccc(C(F)(F)F)c2)o1)N1CCN2CCC1CC2 | 0.19 | – | 111 | – | – | – | – | Activity [6]: inactive; Activity [7]: 57.4; Activity [8]: inactive; Activity [9]: 0.18; Activity [10]: 123; Activity [11]: 2.73 |
| O=C(c1ccc(-c2cccc(I)c2)o1)N1CCN2CCC1CC2 | Active | – | Active | – | inactive | – | – | – |
| Cc1cccc(-c2ccc(C(=O)N3CCN4CCC3CC4)o2)c1 | 0.2 | – | 30.7 | – | inactive | – | – | – |
| O=C(c1ccc(-c2ccc(C(F)(F)F)cc2)o1)N1CCN2CCC1CC2 | 0.64 | 0.4 | 3.23 | – | – | – | 6.25 | – |
| O=C(c1ccc(-c2cccc([N+](=O)[O-])c2)o1)N1CCN2CCC1CC2 | – | – | 4.78 | inactive | inactive | – | 12.2 | – |
| O=C(c1ccc(-c2cccc(Br)c2)o1)N1CCN2CCC1CC2 | Active | – | Active | – | inactive | – | – | – |
| CCN1CCN2CCC1CC2 | – | – | – | inactive | inactive | – | – | Activity [4]: inactive |
| CCN(CC)C(=O)c1ccc(-c2cccc(C(F)(F)F)c2)o1 | – | – | – | inactive | inactive | inactive | – | Activity [4]: inactive |
| C[N+]12CCC(CC1)N(C(=O)c1ccc(-c3cccc(C(F)(F)F)c3)o1)CC2 | – | 0.79 | 1.39 | – | – | – | Active | EC50 [5]: 322 nM; Imax [5]: 0.81 |
| O=C(c1ccc(-c2cccc(C(F)(F)F)c2)o1)N1CC2CCN(CC2)C1 | – | – | – | inactive | inactive | inactive | – | Activity [4]: inactive |
| O=C(c1ccc(-c2ccoc2)o1)N1CCN2CCC1CC2 | Active | Active | Active | – | – | – | – | – |
| O=C(c1ccc(-c2cncc3ccccc23)o1)N1CCN2CCC1CC2 | 0.94 | 0.11 | – | – | – | inactive | 20.4 | – |
| FC(F)(F)c1cccc(-c2ccc(CN3CCN4CCC3CC4)o2)c1 | – | – | – | – | inactive | inactive | – | Activity [4]: inactive |
